Patent publication US7976582B2, “Bleaching of substrates” (Conopco, Inc., priority 2007, dated 2011)

Experiments:
[1] = Raw cotton bleaching, high starting pH left to reduce during bleaching (Experiment 3); conditions: 10 microM catalyst, H2O2, DTPA, 77° C., 30 minutes; pH(init) 10.7, pH(final) 9.7
Experimental: A batch of raw cotton with a Berger Whiteness value of 0 was treated as follows: 6 grams of the cotton was immersed into temperature-controlled beaker glasses a 60 ml solution (cloth/liquor ratio of 1/10) containing 10 microM of [Mn2O3(Me3-TACN)2] (PF6)2.H2O, 2.3% H2O2 (equals to 6.66 ml (35%)/l; w/w wrt cotton), 0.4 g/l H5-DTPA (ex Akzo-Nobel; trade name Dissolvine D50; purity is 50%), and 2 g/l Sandoclean PCJ (ex Clariant). The temperature of the experiment was 77° C.
The pH of water containing Sandoclean, Na5DTPA, cotton and appropriate amount of NaOH was determined at room temperature, heated to 77° C., the pH value was monitored and then hydrogen peroxide was added. Then a correction for the addition of hydrogen peroxide was made by adding some extra NaOH. Then the catalyst was added and left for 30 minutes under stirring. The cloths were then rinsed and washed as described above. The pH of the solution after the bleaching stage was determined after allowing the solution cooled down to room temperature. As a comparative experiment to determine the effect of the manganese-triazacyclononane compound, no catalyst was added. The values of the whiteness are expressed in Berger units, as defined above.

[2] = Raw cotton bleaching, pH control by continuously adding NaOH (Experiment 1); conditions: for Whiteness (Berger) Wb: 20 microM catalyst, unbuffered, 0.2 g/l DTPA, H2O2, 80° C., 30 minutes
Experimental: Raw cotton with a Berger Whiteness value of 5.5+/−1.0 was treated as follows: 6 grams of the cotton was immersed into temperature-controlled beaker glasses a 60 ml solution (cloth/liquor ratio of 1/10) containing 20 microM of [Mn2O3(Me3-TACN)2] […]
Drops of NaOH (1M) were added to maintain the pH (within 0.2 pH units) for 30 minutes of agitated solutions at 75 to 80° C. The pH was monitored with a pH meter. Subsequently the cotton swatches were rinsed with 2 to 3 liters of hot demineralised water (80° C.), then washed with copious amounts of demineralised water, spun in a spin drier for 3 minutes and dried overnight under ambient conditions. The optical properties of the cloths were then measured using a Minolta spectrophotometer CM-3700d, using L, a, b values which are converted to Berger Whiteness values.
The values of the whiteness is expressed in Berger units. The formula of Berger whiteness is given below: Wberger=Y+a.Z−b.X, where a=3.448 and b=3.904.
The values X, Y, Z are the coordinates of the achromatic point.

[3] = Raw cotton bleaching, NaOH/H2O2 pretreatment without catalyst, then lower pH and add catalyst (Experiment 2)
Experimental: Raw cotton with a Berger Whiteness value of 5.5+/−1.0 was treated as follows: 6 grams of the cotton was immersed into temperature-controlled beaker glasses of a 60 ml solution (cloth/liquor ratio of 1/10), containing 0.5 g/l DTPA, 2 g/l Sandoclean PCJ, 2.3% H2O2 (equals to 6.66 ml (35%)/1; w/w wrt cotton), for 15 minutes at 75° C. Subsequently, sulphuric acid was added (1M) until the desired pH was added followed by 20 microM of [Mn2O3(Me3-TACN)2] (PF6)2.H2O and the mixture left for 15 minutes with continuous stirring. No NaOH solution was added during the bleaching process in the presence of catalyst. After the allocated time, the cloths are washed and dried as exemplified above. The values of the whiteness are expressed in Berger units, as defined above.
Table 2: Whiteness (Berger) results obtained using 20 microM [Mn2O3(Me3-TACN)2] (PF6)2.H2O in an unbuffered solution with 0.2 g/l DTPA at 75° C. for 15 minutes, after having the cloths allowed to pretreat with NaOH/H2O2 for 15 minutes at 75° C. (entry 1) vs adding the catalyst at the beginning of the bleaching experiment at pH 9.75.

[4] = 20° C.; cited from earlier work

CN1CCN(C)CCN(C)CC1.CN1CCN(C)CCN(C)CC1.F[P-](F)(F)(F)(F)F.F[P-](F)(F)(F)(F)F.O.[Mn+4].[Mn+4].[O-2].[O-2].[O-2] [[Mn2O3(Me3-TACN)2](PF6)2•H2O, [Mn2O3(Me3-TACN)2] (PF6)2.H2O]
Whiteness (Berger) Wb [1]: 57.6 Wb
Whiteness (Berger) Wb ([2]; pH(init) 9.75, pH(final) 7.3 (pH not controlled)): 51.0 Wb
Whiteness (Berger) Wb ([2]; pH(init) 10.0, pH(final) 9.5 (pH controlled with NaOH)): 63.1 Wb
Whiteness lower without DTPA than the system with DTPA ([2]; in the presence of catalyst, without DTPA added): about 10 Wb
Whiteness (Berger) Wb ([3]; 20 microM catalyst, 0.2 g/l DTPA, 75° C., 15 minutes after 15 minutes NaOH/H2O2 pretreatment, pH(step 1) 11, pH(step2) 10, pH(final) 9.4): 60.0 Wb
Whiteness (Berger) Wb ([3]; catalyst added at the beginning, no pretreatment, pH 9.75, pH(final) 7.6): 51.0 Wb
water solubility [4]: 10.8 g per liter
